Bridge positions count the residues as written; N and C are the ends. Square brackets hold non-standard residues; d marks the D form. Peptide text beside a SMILES is read from it. hArg = N=C(N)NCCCC[C@H](N)C(=O)O; Mpa = O=C(O)CCS

The target of one test is Integrin alpha-4/beta-1 (Homo sapiens, UniProt P05556+P13612). In words: Binding affinity to human integrin alpha4beta1 incubated for 6 hrs by radioligand binding assay. In kind it is protein-complex assay.
Test [1] concerns the target T1, Integrin alpha-L/beta-2 (LFA-1) (Homo sapiens, UniProt P05107+P20701). Nature of the test: Inhibition of human integrin alphaL beta2 assessed as reduction in integrin alphaL beta2/ICAM1 protein-protein interaction by ELISA. In kind it is protein-complex assay. A general note: ELISA stands for enzyme-linked immunosorbent assay.
The target of test [2] is T1, Integrin alpha-L/beta-2 (LFA-1). In words: Binding affinity to human lymphocyte integrin alphaL beta2 (Cys125 to Gly311residues) expressed in Escherichia coli XL-1B cells by isothermal titration calorimetry. In general terms: Isothermal titration calorimetry measures the heat released or taken up as one component is titrated into another.
In test [3] the target is T2, Integrin alpha-V/beta-3 (Homo sapiens, UniProt P05106+P06756). Nature of the test: Inhibition of human integrin alphavbeta3 expressed in HEK293 cells assessed as reduction in cell adhesion to fibrinogen preincubated for 20 mins followed by phosphatase substrate addition and measured after 1 hr by spectrophotometry. The test is classed as cell-based.
The target in a further test is Integrin alpha2/beta1 (Homo sapiens, UniProt P05556+P17301). Nature of the test: Inhibition of human alpha2 beta1 expressed in CHO cells assessed as reduction in cell adhesion to collagen type 1 incubated for 5 mins by DiOC6 dye based fluorescence microscopy.
Test [4] addresses T2, Integrin alpha-V/beta-3. In words: Inhibition of human integrin alphavbeta3 (unknown origin). In kind it is protein-complex assay.
Another test has as its target Integrin alpha-V/beta-1 (Homo sapiens, UniProt P05556+P06756). Nature of the test: Displacement of [3H] C8 from human integrin alphavbeta1 incubated for 6 hrs by competition binding assay. The test is classed as protein-complex assay. On the technique in general: Displacement assays read how much labelled ligand stays bound in the presence of the test substance.
The target in test [5] is Integrin alpha-IIb/beta-3 (Homo sapiens, UniProt P05106+P08514). In words: Inhibition of FITC-dodecapeptide binding to human integrin alpha2b beta3 receptor stably expressed in CHO Lec.3.2.8.1 cells by fluorescence anisotropy. In kind it is cell-based.
Integrin alpha-IIb/beta-3, sequence (P05106 27-788 limits assumed): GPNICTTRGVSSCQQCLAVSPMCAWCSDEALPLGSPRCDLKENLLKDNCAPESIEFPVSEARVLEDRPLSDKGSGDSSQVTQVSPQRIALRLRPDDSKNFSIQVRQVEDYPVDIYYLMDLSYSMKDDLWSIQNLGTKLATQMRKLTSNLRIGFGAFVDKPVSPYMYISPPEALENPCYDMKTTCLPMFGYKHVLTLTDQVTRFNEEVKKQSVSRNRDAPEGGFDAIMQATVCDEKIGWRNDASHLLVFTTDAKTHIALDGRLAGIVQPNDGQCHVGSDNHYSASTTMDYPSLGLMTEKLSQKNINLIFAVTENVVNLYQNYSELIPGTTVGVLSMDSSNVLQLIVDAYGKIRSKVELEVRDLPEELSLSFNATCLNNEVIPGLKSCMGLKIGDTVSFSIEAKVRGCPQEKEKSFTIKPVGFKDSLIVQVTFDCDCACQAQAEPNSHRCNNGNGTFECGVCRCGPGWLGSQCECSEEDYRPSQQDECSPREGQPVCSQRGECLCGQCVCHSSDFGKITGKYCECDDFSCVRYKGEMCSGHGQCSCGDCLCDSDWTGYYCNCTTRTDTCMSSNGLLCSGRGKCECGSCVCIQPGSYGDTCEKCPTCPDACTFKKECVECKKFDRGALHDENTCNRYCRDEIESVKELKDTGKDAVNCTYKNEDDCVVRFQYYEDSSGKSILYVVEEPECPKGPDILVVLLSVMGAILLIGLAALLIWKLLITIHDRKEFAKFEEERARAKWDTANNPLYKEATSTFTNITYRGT
Integrin alpha-IIb/beta-3, sequence (P08514 32-887 limits assumed): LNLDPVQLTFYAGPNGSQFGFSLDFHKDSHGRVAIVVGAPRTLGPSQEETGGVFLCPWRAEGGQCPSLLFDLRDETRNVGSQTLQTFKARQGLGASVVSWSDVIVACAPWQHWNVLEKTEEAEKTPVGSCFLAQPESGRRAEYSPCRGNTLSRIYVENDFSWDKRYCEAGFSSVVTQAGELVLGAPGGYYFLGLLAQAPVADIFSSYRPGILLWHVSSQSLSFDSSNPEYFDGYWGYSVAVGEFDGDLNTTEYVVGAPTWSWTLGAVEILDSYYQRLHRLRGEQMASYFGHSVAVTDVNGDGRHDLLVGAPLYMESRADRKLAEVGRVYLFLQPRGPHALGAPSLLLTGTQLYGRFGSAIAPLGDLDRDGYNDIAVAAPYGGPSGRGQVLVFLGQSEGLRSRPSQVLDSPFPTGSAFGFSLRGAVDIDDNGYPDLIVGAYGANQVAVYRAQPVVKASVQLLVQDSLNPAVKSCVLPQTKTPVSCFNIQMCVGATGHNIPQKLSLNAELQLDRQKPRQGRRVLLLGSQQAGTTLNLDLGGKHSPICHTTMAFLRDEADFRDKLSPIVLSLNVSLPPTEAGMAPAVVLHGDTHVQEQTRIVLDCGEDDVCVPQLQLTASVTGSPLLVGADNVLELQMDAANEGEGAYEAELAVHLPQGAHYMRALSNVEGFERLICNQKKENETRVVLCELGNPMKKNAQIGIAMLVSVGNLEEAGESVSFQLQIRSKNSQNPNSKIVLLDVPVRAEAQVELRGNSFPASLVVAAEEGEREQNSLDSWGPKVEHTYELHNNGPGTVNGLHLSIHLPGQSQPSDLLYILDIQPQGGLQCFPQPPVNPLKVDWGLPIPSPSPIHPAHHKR
Integrin alpha-IIb/beta-3, sequence (P08514 891-1039 limits assumed): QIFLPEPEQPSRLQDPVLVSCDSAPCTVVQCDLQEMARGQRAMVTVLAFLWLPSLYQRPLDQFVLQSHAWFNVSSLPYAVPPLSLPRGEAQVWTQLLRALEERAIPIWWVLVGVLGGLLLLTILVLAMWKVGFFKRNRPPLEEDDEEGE

T2 sequence (P05106 27-788 limits assumed): as the sequence (P05106 27-788 limits assumed) above
T2 sequence (P06756 31-889 limits assumed): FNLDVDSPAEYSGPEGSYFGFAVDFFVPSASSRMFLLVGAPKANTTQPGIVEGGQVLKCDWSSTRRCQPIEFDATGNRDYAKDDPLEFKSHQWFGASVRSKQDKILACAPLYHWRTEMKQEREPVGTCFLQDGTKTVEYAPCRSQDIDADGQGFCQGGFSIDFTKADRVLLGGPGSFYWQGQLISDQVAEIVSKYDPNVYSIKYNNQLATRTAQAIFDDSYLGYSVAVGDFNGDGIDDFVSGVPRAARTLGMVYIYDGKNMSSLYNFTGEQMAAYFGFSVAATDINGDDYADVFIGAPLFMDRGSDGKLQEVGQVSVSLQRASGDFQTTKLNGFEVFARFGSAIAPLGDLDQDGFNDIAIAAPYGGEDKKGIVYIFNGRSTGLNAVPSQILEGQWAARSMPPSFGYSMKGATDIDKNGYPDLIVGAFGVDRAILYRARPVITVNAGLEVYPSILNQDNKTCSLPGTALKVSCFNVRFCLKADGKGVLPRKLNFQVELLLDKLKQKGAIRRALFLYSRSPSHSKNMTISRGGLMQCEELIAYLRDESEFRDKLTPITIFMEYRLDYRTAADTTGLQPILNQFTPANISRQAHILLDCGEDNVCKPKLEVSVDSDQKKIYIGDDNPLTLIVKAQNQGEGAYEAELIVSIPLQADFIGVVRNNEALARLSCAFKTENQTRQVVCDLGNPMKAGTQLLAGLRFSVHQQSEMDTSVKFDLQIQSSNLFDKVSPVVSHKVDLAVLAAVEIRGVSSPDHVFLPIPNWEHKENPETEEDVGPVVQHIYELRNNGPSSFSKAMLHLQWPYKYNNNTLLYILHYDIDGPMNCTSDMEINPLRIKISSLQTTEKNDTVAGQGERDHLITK
T2 sequence (P06756 891-1048 limits assumed): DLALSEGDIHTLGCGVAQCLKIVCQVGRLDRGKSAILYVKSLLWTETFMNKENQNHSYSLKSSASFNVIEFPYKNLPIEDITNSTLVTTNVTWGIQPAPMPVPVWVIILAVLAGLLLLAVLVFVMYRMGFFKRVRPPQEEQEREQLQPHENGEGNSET
T1 sequence (P20701 whole entry): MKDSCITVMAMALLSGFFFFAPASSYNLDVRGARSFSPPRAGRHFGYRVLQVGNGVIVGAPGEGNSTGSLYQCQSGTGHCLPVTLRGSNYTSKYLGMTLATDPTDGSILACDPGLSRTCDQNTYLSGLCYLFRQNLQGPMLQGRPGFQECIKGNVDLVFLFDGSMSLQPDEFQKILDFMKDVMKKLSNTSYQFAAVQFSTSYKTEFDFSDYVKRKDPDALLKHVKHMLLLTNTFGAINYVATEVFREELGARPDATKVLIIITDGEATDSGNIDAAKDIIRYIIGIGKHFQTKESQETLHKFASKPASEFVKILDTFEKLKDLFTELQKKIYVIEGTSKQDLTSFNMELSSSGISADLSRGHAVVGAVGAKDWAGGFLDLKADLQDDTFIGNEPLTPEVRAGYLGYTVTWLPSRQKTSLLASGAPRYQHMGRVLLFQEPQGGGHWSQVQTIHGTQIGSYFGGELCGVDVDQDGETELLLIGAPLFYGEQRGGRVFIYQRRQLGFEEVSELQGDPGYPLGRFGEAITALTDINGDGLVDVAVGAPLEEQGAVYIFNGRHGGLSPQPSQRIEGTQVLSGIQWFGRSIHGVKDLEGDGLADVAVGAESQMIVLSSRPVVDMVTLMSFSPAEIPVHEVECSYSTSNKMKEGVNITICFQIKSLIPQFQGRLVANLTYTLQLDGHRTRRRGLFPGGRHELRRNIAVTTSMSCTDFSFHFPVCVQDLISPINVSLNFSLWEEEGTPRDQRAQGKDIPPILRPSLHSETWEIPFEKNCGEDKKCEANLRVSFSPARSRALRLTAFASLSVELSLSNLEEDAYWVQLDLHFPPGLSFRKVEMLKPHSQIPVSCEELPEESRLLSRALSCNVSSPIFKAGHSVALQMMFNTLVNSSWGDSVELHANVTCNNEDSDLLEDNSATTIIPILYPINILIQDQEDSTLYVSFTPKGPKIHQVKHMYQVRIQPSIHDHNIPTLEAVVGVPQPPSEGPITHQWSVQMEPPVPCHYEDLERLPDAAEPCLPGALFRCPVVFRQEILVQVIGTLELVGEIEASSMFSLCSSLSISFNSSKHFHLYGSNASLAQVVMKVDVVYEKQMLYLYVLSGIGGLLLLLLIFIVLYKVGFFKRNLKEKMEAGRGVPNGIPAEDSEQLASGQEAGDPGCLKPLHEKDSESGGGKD
T1 sequence (P05107 whole entry): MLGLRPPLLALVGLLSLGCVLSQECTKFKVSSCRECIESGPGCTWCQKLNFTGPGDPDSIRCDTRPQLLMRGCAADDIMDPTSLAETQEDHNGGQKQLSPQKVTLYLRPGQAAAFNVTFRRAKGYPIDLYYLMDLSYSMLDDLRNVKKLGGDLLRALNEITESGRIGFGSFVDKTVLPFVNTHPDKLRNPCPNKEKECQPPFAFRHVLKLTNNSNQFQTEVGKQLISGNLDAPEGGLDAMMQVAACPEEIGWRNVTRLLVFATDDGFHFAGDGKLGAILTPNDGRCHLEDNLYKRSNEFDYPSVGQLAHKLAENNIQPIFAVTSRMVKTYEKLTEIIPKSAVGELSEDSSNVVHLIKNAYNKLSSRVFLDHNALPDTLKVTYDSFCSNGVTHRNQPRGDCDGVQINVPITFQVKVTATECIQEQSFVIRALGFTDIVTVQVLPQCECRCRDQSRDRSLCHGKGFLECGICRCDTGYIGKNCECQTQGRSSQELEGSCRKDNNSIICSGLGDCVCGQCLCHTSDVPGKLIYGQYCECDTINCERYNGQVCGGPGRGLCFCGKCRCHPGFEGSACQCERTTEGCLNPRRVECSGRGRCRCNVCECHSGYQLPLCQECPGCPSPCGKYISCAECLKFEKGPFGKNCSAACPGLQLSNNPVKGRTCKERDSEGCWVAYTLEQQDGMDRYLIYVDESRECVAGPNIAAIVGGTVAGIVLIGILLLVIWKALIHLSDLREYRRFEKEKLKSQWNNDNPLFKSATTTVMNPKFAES

With `N=C(N)NCCCCC(=O)Nc1ccc(C[C@H](NC(=O)[C@@H]2CCCN2S(=O)(=O)c2ccccc2)C(=O)O)cc1`, the Kd at Integrin alpha-4/beta-1 was 0.794 nM.
In the case of `CC[C@H](C)C(=O)OC1C[C@@H](C)C=C2C=C[C@H](C)[C@H](CC[C@@H]3C[C@H](CC(=O)NC)N(Cc4ccc(O)c(OC)c4)C(=O)O3)[C@H]21` (some centres not stated), in test [1], the IC50 was 50 nM.
`CCOc1ccccc1Sc1ccc(-c2ccnc(N3CCN(C(C)=O)CC3)c2)cc1[N+](=O)[O-]` showed a Kd in test [2] of 18.3 nM.
On to `CC[C@H](C)C(=O)O[C@H]1C[C@@H](C)C=C2C=C[C@H](C)[C@H](CCC3C[C@@H](O)CC(=O)N3Cc3ccc4c(CO)c(OC)ccc4c3)[C@H]21` (some centres not stated), for which, in test [1], the IC50 was determined as 200 nM.
Take `COc1ccc([C@H](CC(=O)O)N2CCN(CCCc3ccc4c(n3)NCCC4)C2=O)cn1`: the IC50 at Integrin alpha-V/beta-3 [3] is 3 nM.
As to `CN(c1ccc(NC(=O)Nc2ccccc2)cc1)S(=O)(=O)c1ccc(-c2ccnn2C)s1`, at Integrin alpha2/beta1, the EC50 stood at 160 nM.
Take `CN(c1ccc(NC(=O)Nc2ccccc2)cc1)S(=O)(=O)c1cnn(-c2ccc(F)cc2)c1`: the EC50 on Integrin alpha2/beta1 was 130 nM.
On to `O=C(CCCCc1ccc2c(n1)NCCC2)NCC[C@H](NC(=O)c1nc2ccccc2s1)C(=O)O`, for which the IC50 at Integrin alpha-V/beta-3 [3] came to 25 nM.
For `O=C(NC[C@H](NS(=O)(=O)c1cccnc1)C(=O)O)c1cc2cc(CCC3CCNCC3)sc2s1`, the IC50 against Integrin alpha-V/beta-3 [4] lay within 8 to 19 nM.
`N=C(N)NCCCC[C@@H]1NC(=O)CCSSC[C@@H](C(N)=O)NC(=O)[C@@H]2CCCN2C(=O)[C@H](Cc2c[nH]c3ccccc23)NC(=O)[C@H](CC(=O)O)NC(=O)CNC1=O` [EPTIFIBATIDE] ([Mpa][hArg]GDWPC-NH2; disulfide 1-7) displayed a Kd on Integrin alpha-V/beta-3 [4] of 120 nM.
In turn, `CCNC(=O)Nc1cnnc(-c2ccc(C[C@H](NC(=O)c3c(Cl)cccc3Cl)C(=O)O)cc2)c1` showed a Ki on Integrin alpha-V/beta-1 of 0.166 nM.
As to `N=C(N)c1ccc(C(=O)NCCC(=O)N[C@@H](CC(=O)O)C(=O)NC(Cc2ccccc2)C(=O)O)cc1` (some centres not stated), the IC50 in test [5] stood at 0.6 nM.

Broadly, the Kd is the constant that tells how readily two partners part at equilibrium. Higher therefore signals a looser complex. Broadly, the IC50 is the point on the concentration scale where inhibition reaches its midpoint. What is called EC50 is the midpoint of the concentration-response curve. The term Ki denotes a dissociation constant, usually derived from enzyme kinetics or from competition with a known ligand.

Source of the values: ChEMBL document CHEMBL4602673, “Insights into Protein-Ligand Interactions in Integrin Complexes: Advances in Structure Determinations” (J Med Chem, 2020).
